# Reference: article PMC11870037 (Molecules, 2024)
# Where two headings read alike, the source gives them in different places.
# Key:
# SERT = target: T1, SERT (Rattus norvegicus, UniProt P31652); test: biochemical; type: binding; conditions: for potency ratio among SERT, NET, and H3: ratio of binding Ki values for SERT
# T1 construct: [3H]-paroxetine, rat cerebral cortex; from tissue; host or cells: rat cerebral cortex (membranes / crude synaptosomes)
# adrenergic α1 receptor = test: Adrenergic α1 receptor binding assay ([3H]prazosin); conditions: rat cerebral cortex, means ± SEM of three experiments, read-out: Receptor Affinity Ki ± SEM α1
# hERG potassium channel = target: T2, hERG potassium channel (Homo sapiens, UniProt Q12809); test: hERG whole-cell patch clamp in HEK 293 cells; type: cell-based
# T2 construct: expressed in transfected cells; host or cells: HEK 293
# T2 sequence (Q12809 whole entry): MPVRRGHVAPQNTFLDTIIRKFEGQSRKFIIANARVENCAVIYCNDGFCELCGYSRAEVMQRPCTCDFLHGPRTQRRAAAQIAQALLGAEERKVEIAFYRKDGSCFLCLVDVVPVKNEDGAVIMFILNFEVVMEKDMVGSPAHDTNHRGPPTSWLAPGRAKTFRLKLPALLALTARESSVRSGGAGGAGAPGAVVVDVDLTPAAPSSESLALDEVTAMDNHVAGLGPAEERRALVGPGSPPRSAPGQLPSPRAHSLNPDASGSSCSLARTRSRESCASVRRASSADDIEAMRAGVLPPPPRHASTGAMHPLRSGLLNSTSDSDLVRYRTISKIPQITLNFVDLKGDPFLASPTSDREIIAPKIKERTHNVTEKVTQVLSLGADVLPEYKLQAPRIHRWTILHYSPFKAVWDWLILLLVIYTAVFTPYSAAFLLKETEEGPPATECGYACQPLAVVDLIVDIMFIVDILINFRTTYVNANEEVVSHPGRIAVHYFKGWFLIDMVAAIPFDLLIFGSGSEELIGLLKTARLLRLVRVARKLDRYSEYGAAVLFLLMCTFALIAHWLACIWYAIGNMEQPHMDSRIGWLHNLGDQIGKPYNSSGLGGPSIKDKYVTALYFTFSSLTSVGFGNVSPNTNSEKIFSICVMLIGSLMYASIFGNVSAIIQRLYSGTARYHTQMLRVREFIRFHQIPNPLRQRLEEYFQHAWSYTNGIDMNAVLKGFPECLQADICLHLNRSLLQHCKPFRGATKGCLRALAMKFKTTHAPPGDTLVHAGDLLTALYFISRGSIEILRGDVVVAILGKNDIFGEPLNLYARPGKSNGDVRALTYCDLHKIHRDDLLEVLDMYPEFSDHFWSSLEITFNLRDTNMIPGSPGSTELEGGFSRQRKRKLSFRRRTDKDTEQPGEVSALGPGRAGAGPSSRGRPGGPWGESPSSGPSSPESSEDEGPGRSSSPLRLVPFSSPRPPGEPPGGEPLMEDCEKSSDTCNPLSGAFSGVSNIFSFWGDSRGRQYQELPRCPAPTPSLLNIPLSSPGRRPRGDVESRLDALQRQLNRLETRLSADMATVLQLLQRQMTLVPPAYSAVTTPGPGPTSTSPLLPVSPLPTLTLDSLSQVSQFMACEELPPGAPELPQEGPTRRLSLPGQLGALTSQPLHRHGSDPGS
# NET [1] = target: T3, NET (Rattus norvegicus, UniProt Q63380); test: biochemical; conditions: Receptor Affinity Ki ± SEM NET, rat hippocampal membrane, [3H]nisoxetine; means ± SEM of three experiments
# T3 sequence (Q63380 1-617): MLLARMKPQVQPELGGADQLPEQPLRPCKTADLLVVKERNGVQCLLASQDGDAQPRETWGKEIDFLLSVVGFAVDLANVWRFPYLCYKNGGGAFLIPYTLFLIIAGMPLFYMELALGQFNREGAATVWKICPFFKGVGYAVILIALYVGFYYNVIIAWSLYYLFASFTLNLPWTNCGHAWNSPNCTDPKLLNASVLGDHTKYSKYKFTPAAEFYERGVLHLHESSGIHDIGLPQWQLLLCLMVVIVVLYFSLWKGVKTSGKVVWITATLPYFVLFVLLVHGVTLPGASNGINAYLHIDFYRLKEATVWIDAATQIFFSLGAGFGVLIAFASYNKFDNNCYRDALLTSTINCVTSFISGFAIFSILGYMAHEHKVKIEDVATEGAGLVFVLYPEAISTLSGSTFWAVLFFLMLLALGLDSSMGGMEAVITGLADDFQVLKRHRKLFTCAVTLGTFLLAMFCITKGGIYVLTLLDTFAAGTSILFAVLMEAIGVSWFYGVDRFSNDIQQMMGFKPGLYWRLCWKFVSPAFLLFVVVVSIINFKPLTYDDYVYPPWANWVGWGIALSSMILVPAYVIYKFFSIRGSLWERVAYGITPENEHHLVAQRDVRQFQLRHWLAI
# mice [2] = test: Tail suspension test (TST); type: in vivo, mouse; conditions: oral, immobility duration
# mice [3] = conditions: oral, immobility duration
# female rats = conditions: females; cited from earlier work
# NET [4] = target: T3, NET; test: Monoamine uptake transporter assay, [3H]NE uptake by NET; type: biochemical; conditions: 10 μM, n = 3
# recombinant hH3R = recombinant hH3R (Homo sapiens, UniProt Q9Y5N1); test: H3 receptor intrinsic activity assay ([35S]GTPγS binding); type: biochemical; conditions: 10 μM, n = 3
# recombinant hH3R, sequence (Q9Y5N1 whole entry): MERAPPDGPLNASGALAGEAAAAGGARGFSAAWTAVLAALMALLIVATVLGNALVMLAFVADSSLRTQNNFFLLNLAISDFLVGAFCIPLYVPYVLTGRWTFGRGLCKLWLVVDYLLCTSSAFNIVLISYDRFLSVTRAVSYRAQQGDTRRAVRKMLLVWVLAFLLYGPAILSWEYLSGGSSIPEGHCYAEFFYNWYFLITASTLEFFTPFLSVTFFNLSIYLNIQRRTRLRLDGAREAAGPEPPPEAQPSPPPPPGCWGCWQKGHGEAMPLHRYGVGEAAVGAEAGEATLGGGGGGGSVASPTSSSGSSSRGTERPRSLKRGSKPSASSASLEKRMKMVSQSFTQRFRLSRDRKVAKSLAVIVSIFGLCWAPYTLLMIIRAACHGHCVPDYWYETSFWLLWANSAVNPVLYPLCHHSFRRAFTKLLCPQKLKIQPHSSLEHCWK
# [5] = rat cerebral cortex, [3H]-paroxetine, means ± SEM of three experiments, read-out: Receptor Affinity Ki ± SEM SERT
# T1 sequence (P31652 whole entry): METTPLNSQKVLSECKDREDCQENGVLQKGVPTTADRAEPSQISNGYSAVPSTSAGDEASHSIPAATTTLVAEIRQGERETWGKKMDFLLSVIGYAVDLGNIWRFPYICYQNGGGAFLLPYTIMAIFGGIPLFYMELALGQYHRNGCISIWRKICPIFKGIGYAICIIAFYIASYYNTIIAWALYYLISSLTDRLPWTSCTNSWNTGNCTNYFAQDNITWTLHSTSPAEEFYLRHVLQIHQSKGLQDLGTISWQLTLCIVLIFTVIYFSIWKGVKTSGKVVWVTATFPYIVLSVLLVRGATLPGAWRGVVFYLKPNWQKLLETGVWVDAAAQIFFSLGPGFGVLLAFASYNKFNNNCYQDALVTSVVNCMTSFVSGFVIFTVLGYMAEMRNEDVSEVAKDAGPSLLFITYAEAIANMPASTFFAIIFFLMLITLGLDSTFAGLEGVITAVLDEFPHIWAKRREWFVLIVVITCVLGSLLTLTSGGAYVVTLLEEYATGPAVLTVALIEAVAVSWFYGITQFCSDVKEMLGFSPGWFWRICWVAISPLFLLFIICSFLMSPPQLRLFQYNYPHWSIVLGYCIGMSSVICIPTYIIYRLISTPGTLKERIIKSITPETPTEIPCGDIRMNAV
Compound,Ki (SERT; [5]),melting point,Ki (NET [1]),also measured
"CN(C)CCC(Oc1cccc2c1OCO2)c1ccc(OCCCN2CCCC2)cc1.O=C(O)C(=O)O (centres unmarked) [Compound 11a, 3-(benzo[d][1,3]dioxol-4-yloxy)-N,N-dimethyl-3-(4-(3-(pyrrolidin-1-yl)propoxy)phenyl)propan-1-amine oxalate]",10.3 ± 0.9 nM,138 to 140 °C,19.2 ± 2.3 nM,"potency ratio among SERT, NET, and H3 (SERT): < 10 fold; Ki (adrenergic α1 receptor): 428 ± 35.3 nM; IC50 (hERG potassium channel): 819 ± 90.4 nM"
"CN(C)CCC(Oc1cccc2c1OCO2)c1ccc(OCCCN2CCOCC2)cc1.O=C(O)C(=O)O (centres unmarked) [Compound 11c, 3-(benzo[d][1,3]dioxol-4-yloxy)-N,N-dimethyl-3-(4-(3-morpholinopropoxy)phenyl)propan-1-amine oxalate]",43.2 ± 3.8 nM,169 to 170 °C,32.6 ± 2.7 nM,–
"CN(C)CCC(Oc1cccc2c1OCO2)c1ccc(OCCCN2CCN(C)CC2)cc1.O=C(O)C(=O)O (centres unmarked) [Compound 11d, 3-(benzo[d][1,3]dioxol-4-yloxy)-N,N-dimethyl-3-(4-(3-(4-methylpiperazin-1-yl)propoxy)phenyl)propan-1-amine oxalate]",52.3 ± 2.8 nM,155 to 156 °C,86.8 ± 9.1 nM,–
"CCN1CCN(CCCOc2ccc(C(CCN(C)C)Oc3cccc4c3OCO4)cc2)CC1.O=C(O)C(=O)O (centres unmarked) [Compound 11e, 3-(benzo[d][1,3]dioxol-4-yloxy)-3-(4-(3-(4-ethylpiperazin-1-yl)propoxy)phenyl)-N,N-dimethylpropan-1-amine oxalate]",39.6 ± 3.3 nM,187 to 189 °C,66.9 ± 5.1 nM,–
"CC(C)N1CCN(CCCOc2ccc(C(CCN(C)C)Oc3cccc4c3OCO4)cc2)CC1.O=C(O)C(=O)O (centres unmarked) [Compound 11f, 3-(benzo[d][1,3]dioxol-4-yloxy)-3-(4-(3-(4-isopropylpiperazin-1-yl)propoxy)phenyl)-N,N-dimethylpropan-1-amine oxalate]",35.7 ± 3.1 nM,160 to 162 °C,57.9 ± 6.4 nM,–
"CN(C)CCC(Oc1cccc2c1OCO2)c1ccc(OCCCN2CC3CCCC3C2)cc1.O=C(O)C(=O)O (centres unmarked) [Compound 11g, 3-(benzo[d][1,3]dioxol-4-yloxy)-3-(4-(3-(hexahydrocyclopenta[c]pyrrol-2(1H)-yl)propoxy)phenyl)-N,N-dimethylpropan-1-amine oxalate]",31.3 ± 4 nM,110 to 112 °C,48.2 ± 4.2 nM,–
"CN(C)CCC(Oc1cccc2c1OCO2)c1cccc(OCCCN2CCCC2)c1.O=C(O)C(=O)O (centres unmarked) [Compound 11h, 3-(benzo[d][1,3]dioxol-4-yloxy)-N,N-dimethyl-3-(3-(3-(pyrrolidin-1-yl)propoxy)phenyl)propan-1-amine oxalate]",192 ± 18.8 nM,104 to 106 °C,144 ± 13.5 nM,–
"CN(C)CCC(Oc1cccc2c1OCO2)c1cccc(OCCCN2CCCCC2)c1.O=C(O)C(=O)O (centres unmarked) [Compound 11i, 3-(benzo[d][1,3]dioxol-4-yloxy)-N,N-dimethyl-3-(3-(3-(piperidin-1-yl)propoxy)phenyl)propan-1-amine oxalate]",236 ± 26.1 nM,81 to 83 °C,105 ± 9.8 nM,–
"CN(C)CCC(Oc1cccc2c1OCO2)c1cccc(OCCCN2CCOCC2)c1.O=C(O)C(=O)O (centres unmarked) [Compound 11j, 3-(benzo[d][1,3]dioxol-4-yloxy)-N,N-dimethyl-3-(3-(3-morpholinopropoxy)phenyl)propan-1-amine oxalate]",465 ± 39.8 nM,95 to 98 °C,153 ± 12.7 nM,–
"CC(C)N1CCN(CCCOc2cccc(C(CCN(C)C)Oc3cccc4c3OCO4)c2)CC1.O=C(O)C(=O)O (centres unmarked) [Compound 11k, 3-(benzo[d][1,3]dioxol-4-yloxy)-3-(3-(3-(4-isopropylpiperazin-1-yl)propoxy)phenyl)-N,N-dimethylpropan-1-amine oxalate]",163 ± 17.6 nM,185 to 186 °C,111 ± 10.3 nM,–
"CN(C)CCCOc1ccc(C(CCN(C)C)Oc2cccc3c2OCO3)cc1.O=C(O)C(=O)O (centres unmarked) [Compound 11l, 3-(benzo[d][1,3]dioxol-4-yloxy)-3-(4-(3-(dimethylamino)propoxy)phenyl)-N,N-dimethylpropan-1-amine oxalate]",17.1 ± 1.6 nM,121 to 122 °C,115 ± 12.3 nM,–
"CCN(CC)CCCOc1ccc(C(CCN(C)C)Oc2cccc3c2OCO3)cc1.O=C(O)C(=O)O (centres unmarked) [Compound 11m, 3-(benzo[d][1,3]dioxol-4-yloxy)-3-(4-(3-(diethylamino)propoxy)phenyl)-N,N-dimethylpropan-1-amine oxalate]",28.4 ± 11.3 nM,98 to 100 °C,85.2 ± 9.1 nM,–
"CN(C)CCC(Oc1cccc2c1OCO2)c1ccc(OCCN2CCCCC2)cc1.O=C(O)C(=O)O (centres unmarked) [Compound 11n, 3-(benzo[d][1,3]dioxol-4-yloxy)-N,N-dimethyl-3-(4-(2-(piperidin-1-yl)ethoxy)phenyl)propan-1-amine oxalate]",26.1 ± 2.3 nM,116 to 118 °C,37.3 ± 4.2 nM,–
"CN(C)CCC(Oc1cccc2c1OCO2)c1ccc(OCCCCN2CCCCC2)cc1.O=C(O)C(=O)O (centres unmarked) [Compound 11o, 3-(benzo[d][1,3]dioxol-4-yloxy)-N,N-dimethyl-3-(4-(4-(piperidin-1-yl)butoxy)phenyl)propan-1-amine oxalate]",49.2 ± 4.8 nM,169 to 171 °C,64.6 ± 5.5 nM,–
"CC1CCCCN1CCCOc1ccc(C(CCN(C)C)Oc2cccc3c2OCO3)cc1.O=C(O)C(=O)O (centres unmarked) [Compound 11p, 3-(benzo[d][1,3]dioxol-4-yloxy)-N,N-dimethyl-3-(4-(3-(2-methylpiperidin-1-yl)propoxy)phenyl)propan-1-amine oxalate]",20.6 ± 1.9 nM,129 to 131 °C,35.4 ± 3.2 nM,–
"CC1CCCN(CCCOc2ccc(C(CCN(C)C)Oc3cccc4c3OCO4)cc2)C1.O=C(O)C(=O)O (centres unmarked) [Compound 11q, 3-(benzo[d][1,3]dioxol-4-yloxy)-N,N-dimethyl-3-(4-(3-(3-methylpiperidin-1-yl)propoxy)phenyl)propan-1-amine oxalate]",12.1 ± 1.6 nM,130 to 132 °C,20.7 ± 2.1 nM,"potency ratio among SERT, NET, and H3 (SERT): < 10 fold; Ki (adrenergic α1 receptor): 307 ± 28.1 nM; IC50 (hERG potassium channel): 780 ± 68.5 nM"
"CC1CCN(CCCOc2ccc(C(CCN(C)C)Oc3cccc4c3OCO4)cc2)CC1.O=C(O)C(=O)O (centres unmarked) [Compound 11r, 3-(benzo[d][1,3]dioxol-4-yloxy)-N,N-dimethyl-3-(4-(3-(4-methylpiperidin-1-yl)propoxy)phenyl)propan-1-amine oxalate]",27.1 ± 1.6 nM,126 to 128 °C,38.3 ± 3.5 nM,–
"CC1CC(C)CN(CCCOc2ccc(C(CCN(C)C)Oc3cccc4c3OCO4)cc2)C1.O=C(O)C(=O)O (centres unmarked) [Compound 11s, 3-(benzo[d][1,3]dioxol-4-yloxy)-3-(4-(3-(3,5-dimethylpiperidin-1-yl)propoxy)phenyl)-N,N-dimethylpropan-1-amine oxalate]",30.3 ± 2.6 nM,140 to 142 °C,25.1 ± 2.8 nM,–
"CN(C)CCC(Oc1cccc2c1OCO2)c1ccc(OCCCN2CCC(F)CC2)cc1.O=C(O)C(=O)O (centres unmarked) [Compound 11t, 3-(benzo[d][1,3]dioxol-4-yloxy)-3-(4-(3-(4-fluoropiperidin-1-yl)propoxy)phenyl)-N,N-dimethylpropan-1-amine oxalate]",34.2 ± 2.8 nM,134 to 136 °C,42.5 ± 4.6 nM,–
"CN(C)CCC(Oc1cccc2c1OCO2)c1ccc(OCCCN2CCC(Cl)CC2)cc1.O=C(O)C(=O)O (centres unmarked) [Compound 11u, 3-(benzo[d][1,3]dioxol-4-yloxy)-3-(4-(3-(4-chloropiperidin-1-yl)propoxy)phenyl)-N,N-dimethylpropan-1-amine oxalate]",39.5 ± 4 nM,145 to 146 °C,50.2 ± 4.9 nM,–
"CN(C)CCC(Oc1cccc2c1OCO2)c1ccc(OCCCN2CCC(C#N)CC2)cc1.O=C(O)C(=O)O (centres unmarked) [Compound 11v, 1-(3-(4-(1-(benzo[d][1,3]dioxol-4-yloxy)-3-(dimethylamino)propyl)phenoxy)propyl)piperidine-4-carbonitrile oxalate]",60.5 ± 5.7 nM,148 to 151 °C,48.6 ± 6.4 nM,–
"CNCC[C@H](Oc1cccc2ccccc12)c1cccs1 [Duloxetine, reference compound]",–,–,–,Ki (adrenergic α1 receptor): 1010 ± 97.8 nM; minimal effective dose (MED) in TST (mice [2]): 16 mg/kg; minimal effective dose (MED) in FST (mice [3]): 16 mg/kg; LD50 (female rats): 279 mg/kg
"CNCCC(Oc1ccccc1OC)c1ccccc1 (centres unmarked) [Nisoxetine, reference compound]",–,–,–,inhibition at 10 µM (NET [4]): 99.8 ± 1.9%
"Clc1ccc(CCCOCCCN2CCCCC2)cc1 [Pitolisant, reference compound]",–,–,> 1000 nM,Ki (SERT; Receptor Affinity Ki ± SEM SERT): > 1000 nM; inhibition at 10 µM (recombinant hH3R): 99.3 ± 2.5%
